How the values were obtained:
[1] = system: spiggin mRNA in adult female stickleback kidney; assay: Induction of spiggin mRNA in stickleback kidney after steroid implants (slot blot); type: in vivo, three-spined stickleback (Gasterosteus aculeatus); details: females
Description: The fish were anesthetized with 0.1% (v/v) 2-phenoxyethanol (Sigma, St. Louis, MO, USA) and implanted intraperitoneally with Silclear silicone tubing (10-mm length, 0.6-mm inner diameter, 1.2-mm outer diameter) containing steroids dissolved in cocoa butter. […] KA was used as this steroid is converted into KT by the fish. Tubes containing cocoa butter alone were used as controls. Following implantation the fish were maintained in 50-liter aquaria containing brackish water (0.5% salinity) at 20°C under LD 16:8 h. At sampling fish were decapitated and the kidneys were excised, frozen using liquid nitrogen, and stored at -70°C. A number of experiments were performed as follows. Spiggin mRNA was measured in post-breeding females that were dissected 2 days following implantation of tubes. Cytosolic androgen-receptors were measured in females and in castrated males. Males were castrated under anesthesia as above, by making a 1.5 mm long incision into the abdominal cavity on each side and removing the testes using forceps. The females and the castrated males were implanted with control and high dose tubes and dissected after 6 days. AR mRNA was studied in females implanted for 12 h, 2 and 16 days (separate experiments) with control and high dose tubes and in males castrated as above and implanted for 10 days with control tubes and high doses of KA or E2.
Total RNA was extracted using Tri Reagent™ (Sigma). Aliquots of 10 μg of total RNA were mixed with denaturing solution (6 × SSC, 7% (v/v) formaldehyde) and transferred onto a nylon membrane (Amersham Pharmacia Biotech) using a Minifold II Slot Blot Apparatus (Schleicher and Schuell, Keene, NH, USA). Membranes were probed using either a randomly primed [α-^32P]-dCTP radiolabelled AR cDNA fragment (918 base pairs) that was isolated by reverse transcriptase-polymerase chain reaction and sequenced as above, or a randomly primed [α-^32P]-dCTP radiolabelled spiggin-α cDNA. Hybridizations were performed at 65°C overnight (6 × SCC, 0.1% (w/v) SDS, 100 μg ml^-1 tRNA, and 5 × Denhardt's solution). The membranes were washed for 2 × 30 minutes at 42°C and 65°C in 0.1 × SCC, 0.1% (w/v) SDS whereafter Hyperfilm™-MP film was exposed at -70°C. The films were visualized using Curix 60 Film Developer. Following AR and spiggin mRNA determination the membranes were stripped and analyzed for 18S rRNA using a cDNA fragment as internal control. Each AR or spiggin transcript was then semi-quantified using Quantity ONE 4.2.3 (Bio-Rad, Laboratories, Inc, Hercules, CA, USA) in relation to its internal 18S transcript.

[2] = biological target: T1, AR in stickleback kidney cytosolic extracts (Gasterosteus aculeatus, UniProt Q801Z1); assay: Ligand competition assay with 1 nM [3H]-DHT, kidney cytosolic extracts; type: binding, three-spined stickleback (Gasterosteus aculeatus); details: overnight 4°C, read-out: EC50 (competition for [3H]-DHT binding)
T1 sequence (Q801Z1 1-682): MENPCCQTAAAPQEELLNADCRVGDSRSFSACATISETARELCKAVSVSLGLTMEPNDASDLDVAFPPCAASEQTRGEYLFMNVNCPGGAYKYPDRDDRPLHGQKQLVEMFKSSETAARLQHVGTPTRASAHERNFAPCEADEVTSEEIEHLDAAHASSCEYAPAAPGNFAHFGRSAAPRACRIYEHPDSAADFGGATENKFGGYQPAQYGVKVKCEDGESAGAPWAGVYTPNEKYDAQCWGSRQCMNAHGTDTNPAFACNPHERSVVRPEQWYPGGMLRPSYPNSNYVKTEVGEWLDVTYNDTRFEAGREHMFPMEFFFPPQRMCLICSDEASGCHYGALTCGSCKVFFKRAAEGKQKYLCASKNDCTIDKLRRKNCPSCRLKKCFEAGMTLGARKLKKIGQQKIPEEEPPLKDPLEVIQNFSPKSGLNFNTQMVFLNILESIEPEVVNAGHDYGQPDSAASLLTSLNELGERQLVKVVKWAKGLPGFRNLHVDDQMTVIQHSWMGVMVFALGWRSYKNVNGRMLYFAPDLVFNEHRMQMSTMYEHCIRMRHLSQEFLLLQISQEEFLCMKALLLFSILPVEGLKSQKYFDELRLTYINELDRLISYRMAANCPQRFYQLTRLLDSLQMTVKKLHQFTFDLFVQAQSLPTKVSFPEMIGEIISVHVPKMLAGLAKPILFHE
Description: The steroid specificity of receptor binding was examined using a competitive binding assay. […] Following incubation, the reaction was terminated by addition of DCC and centrifugation and the specific binding in each tube was determined as described above.

stickleback ARβ2 = assay: ARE-luciferase trans-activation assay, stickleback ARβ2 in transfected HepG2 and ZFL cells; type: cell-based, three-spined stickleback (Gasterosteus aculeatus); details: for induction of luciferase activity: 40 h, versus control
Description: Two liver epithelial cell lines were used to test receptor activity. HepG2 cells (ATCC, Manassas, VA) were maintained in DMEM supplemented with 10% FCS and non-essential amino acids. ZFL cells (ATCC) were maintained in 50% L-15 Leibovitz, 15% […] and 35% DMEM supplemented with 10% FCS (Gibco, Paisley, Scotland, UK) and 50 ng ml-1 EGF (Sigma). Cells were cultured at 37°C (HepG2) or 28°C (ZFL) in 5% CO2. The transfection experiments were initiated by replacing the tissue culture medium with fresh phenol-free medium supplemented with charcoal stripped FCS and the cells were seeded on 24-well plates. Transfections were performed at 90–95% confluence using 1,5 μl Lipofectamine 2000 (Invitrogen, Carlsbad, CA, USA) and 0,6 μg DNA per well. Transfected DNA contained 60 ng pRL (Promega), 270 ng androgen response element (ARE) luciferase reporter vector, 270 ng stickleback ARβ2 expression vector or 270 ng human AR expression vector (pCMVhAR) while 270 ng empty TNT cloning vector was used to control background luciferase levels following transfections. Two different ARE containing promoter constructs were tested, one containing 3 separate ARE (HRE; slp-ARU) and a second one construct (slp-HRE2) containing 4 copies of the ARE with high affinity for R1881, a synthetic androgen, and low affinity for dexamethasone, a synthetic glucocorticoid.
After 16 h the transfection medium was replaced with fresh phenol-free medium, supplemented with charcoal stripped FCS, containing different steroid hormones. The cells were exposed to the hormones for 40 h and luciferase levels were detected using the Dual Luciferase Assay kit (Promega) in a TD 20/20 Luminometer (Turner Designs, Sunnyvale, CA). For each cell line, transfection assay was performed for each concentration with n = 4 and the luciferase value of each assay were normalized to its corresponding Renilla luciferase activity. Each experiment was repeated a minimum of 3 times. The fold-induction is presented as luciferase values normalized against the control. The control levels were arbitrarily set to 1.0 for each cell line.

rainbow trout ARα = details: COS-1 cell line; read-out: IC50 (ligand binding); cited from earlier work

In the case of `C[C@]12CC(=O)[C@H]3[C@@H](CCC4=CC(=O)CC[C@@]43C)[C@@H]1CC[C@@H]2O` [KT, 11-ketotestosterone], the “potency in spiggin induction relative to DHT” value ([1]; 1 μg implant dose) is reported as 23 times, the “effectiveness at increasing kidney spiggin mRNA levels relative to T” value ([1]; 25 μg implant dose) is reported as 50 times and the EC50 [2] is reported as 42.8 ± 3.42 nM. For the same compound, the “induction of luciferase activity” value (stickleback ARβ2; HepG2 cells) was 10 fold, the “potency in activating the luciferase reporter gene relative to DHT” value (stickleback ARβ2; HepG2 or ZFL cells, slp-ARU or slp-ARE reporter) was 3 fold and the “activation of stickleback AR compared with other androgens” value (stickleback ARβ2; ZFL cells, 10^-8 M of each steroid) was “preferentially activated”. For the same compound, the “induction of luciferase activity” value (stickleback ARβ2; ZFL cells) was 12 fold and the IC50 (rainbow trout ARα) was 8 nM.
